Reference: ChEMBL document CHEMBL3044634, “Synthesis and evaluation of antibacterial and antifungal activities of new (Z)-3-bromo-4-(1,3-diaryl-1H-pyrazol-4-yl)but-3-en-2-ones and 4-(3-methyl-1-phenyl-1H-pyrazol-5-yl)-1,3-diaryl-1H-pyrazoles” (2013)
≈ marks a conversion by molar mass, not a printed value. Calls of active or inactive are those of the source. The calls are words filed in the database; no cut-off is given here.

Legend:
[1] = tested on: Escherichia coli; assay: Antibacterial activity against Escherichia coli MTCC 1652 at 2 mg/ml after 24 hr by agar well diffusion method; format: functional, organism-based
[2] = tested on: Bacillus subtilis; assay: Antibacterial activity against Bacillus subtilis MTCC 121 at 2 mg/ml after 24 hr by agar well diffusion method; format: functional; settings: MTCC 121, 24 h, read-out: DIZ
[3] = tested on: Aspergillus niger; assay: Growth inhibition of Aspergillus niger at 4 mg/ml after 7 days by poisoned-food technique; format: functional; settings: 168 h, read-out: GI
[4] = tested on: Staphylococcus aureus; assay: Antibacterial activity against Staphylococcus aureus MTCC 96 after 24 hr by macrodilution tube method; format: functional; settings: MTCC 96, 24 h
[5] = tested on: Bacillus subtilis; assay: Antibacterial activity against Bacillus subtilis MTCC 121 after 24 hr by macrodilution tube method; format: functional; settings: MTCC 121, 24 h
[6] = tested on: Staphylococcus aureus; assay: Antibacterial activity against Staphylococcus aureus MTCC 96 at 2 mg/ml after 24 hr by agar well diffusion method; format: functional; settings: MTCC 96, 24 h, read-out: DIZ
[7] = tested on: Aspergillus flavus; assay: Growth inhibition of Aspergillus flavus at 4 mg/ml after 7 days by poisoned-food technique; format: functional; settings: 168 h, read-out: GI
[8] = tested on: Pseudomonas aeruginosa; assay: microbe, parasite or virus in culture; settings: MTCC 741, 24 h, read-out: DIZ
Description: Antibacterial activity against Pseudomonas aeruginosa MTCC 741 at 2 mg/ml after 24 hr by agar well diffusion method

Row | SMILES | Activity [1] | zone of inhibition at 2000 µg/mL [2] | inhibition of growth at 4000 µg/mL [3] | MIC [4] | MIC [5] | zone of inhibition at 2000 µg/mL [6] | inhibition of growth at 4000 µg/mL [7] | zone of inhibition at 2000 µg/mL [8]
1 | Cc1cc(-c2cn(-c3ccccc3)nc2-c2ccc(Cl)cc2)n(-c2ccccc2)n1 | inactive | 16.3 mm | 48.8% | 256 µg/mL (≈ 623 µM) | 128 µg/mL (≈ 312 µM) | 14.3 mm | 51.1% | –
2 | OC(Cn1cncn1)(Cn1cncn1)c1ccc(F)cc1F [FLUCONAZOLE] | – | – | 81.1% | – | – | – | 77.7% | –
3 | Cc1cc(-c2cn(-c3ccccc3)nc2-c2ccccc2)n(-c2ccccc2)n1 | inactive | 15.6 mm | 44.4% | 128 µg/mL (≈ 340 µM) | 128 µg/mL (≈ 340 µM) | 16.3 mm | 46.6% | –
4 | COc1ccc(-c2nn(-c3ccc([N+](=O)[O-])cc3)cc2/C=C(\Br)C(C)=O)cc1 | inactive | 16 mm | 45.5% | 128 µg/mL (≈ 289 µM) | 128 µg/mL (≈ 289 µM) | 15.6 mm | 50% | –
5 | CC(=O)/C(Br)=C/c1cn(-c2ccc([N+](=O)[O-])cc2)nc1-c1ccccc1 | inactive | 17.3 mm | 51.1% | 64 µg/mL (≈ 155 µM) | 128 µg/mL (≈ 310 µM) | 19.3 mm | 53.3% | –
6 | CC(=O)/C(Br)=C/c1cn(-c2ccccc2)nc1-c1ccccc1 | inactive | 16.6 mm | 51.1% | 128 µg/mL (≈ 349 µM) | 128 µg/mL (≈ 349 µM) | 15.3 mm | 48.8% | –
7 | CC(=O)/C(Br)=C/c1cn(-c2ccccc2)nc1-c1ccc([N+](=O)[O-])cc1 | inactive | 17.6 mm | 48.8% | 128 µg/mL (≈ 310 µM) | 128 µg/mL (≈ 310 µM) | 16 mm | 52.2% | –
8 | CC(=O)/C(Br)=C/c1cn(-c2ccccc2)nc1-c1ccc(Br)cc1 | inactive | 19.3 mm | 55.5% | 32 µg/mL (≈ 71.7 µM) | 64 µg/mL (≈ 143 µM) | 21.3 mm | 58.8% | –
9 | Cc1ccc(-c2nn(-c3ccccc3)cc2-c2cc(C)nn2-c2ccccc2)cc1 | inactive | 16.3 mm | 44.4% | 256 µg/mL (≈ 656 µM) | 128 µg/mL (≈ 328 µM) | 14.6 mm | 45.5% | –
10 | COc1ccc(-c2nn(-c3ccc([N+](=O)[O-])cc3)cc2-c2cc(C)nn2-c2ccccc2)cc1 | inactive | 14 mm | 46.6% | 256 µg/mL (≈ 567 µM) | 128 µg/mL (≈ 284 µM) | 15.3 mm | 44.4% | –
11 | CC(=O)/C(Br)=C/c1cn(-c2ccc([N+](=O)[O-])cc2)nc1-c1ccc(F)cc1 | inactive | 17.3 mm | 48.8% | 128 µg/mL (≈ 298 µM) | 128 µg/mL (≈ 298 µM) | 16.6 mm | 50% | –
12 | Cc1cc(-c2cn(-c3ccccc3)nc2-c2ccc(F)cc2)n(-c2ccccc2)n1 | inactive | 16.3 mm | 43.3% | 128 µg/mL (≈ 325 µM) | 128 µg/mL (≈ 325 µM) | 15 mm | 44.4% | –
13 | Cc1cc(-c2cn(-c3ccccc3)nc2-c2ccc(Br)cc2)n(-c2ccccc2)n1 | inactive | 20.6 mm | 55.5% | 64 µg/mL (≈ 141 µM) | 32 µg/mL (≈ 70.3 µM) | 19.3 mm | 52.2% | –
14 | Cc1cc(-c2cn(-c3ccccc3)nc2-c2ccc([N+](=O)[O-])cc2)n(-c2ccccc2)n1 | inactive | 18.6 mm | 51.1% | 64 µg/mL (≈ 152 µM) | 64 µg/mL (≈ 152 µM) | 17.6 mm | 53.3% | –
15 | COc1ccc(-c2nn(-c3ccccc3)cc2-c2cc(C)nn2-c2ccccc2)cc1 | inactive | 14 mm | 41.1% | 128 µg/mL (≈ 315 µM) | 256 µg/mL (≈ 630 µM) | 15.3 mm | 44.4% | –
16 | O=C(O)c1cn(C2CC2)c2cc(N3CCNCC3)c(F)cc2c1=O [CIPROFLOXACIN] | – | 24 mm | – | 5 µg/mL (≈ 15.1 µM) | 5 µg/mL (≈ 15.1 µM) | 26 mm | – | 25.3 mm
17 | CC(=O)/C(Br)=C/c1cn(-c2ccccc2)nc1-c1ccc(Cl)cc1 | inactive | 16.3 mm | 50% | 256 µg/mL (≈ 637 µM) | 128 µg/mL (≈ 319 µM) | 14.6 mm | 45.5% | –
18 | CC(=O)/C(Br)=C/c1cn(-c2ccccc2)nc1-c1ccc(F)cc1 | inactive | 21.6 mm | 53.3% | 32 µg/mL (≈ 83.1 µM) | 32 µg/mL (≈ 83.1 µM) | 20.6 mm | 55.5% | –
19 | CC(=O)/C(Br)=C/c1cn(-c2ccccc2)nc1-c1ccc(C)cc1 | inactive | 17 mm | 51.1% | 64 µg/mL (≈ 168 µM) | 128 µg/mL (≈ 336 µM) | 18.3 mm | 52.2% | –
20 | Cc1cc(-c2cn(-c3ccc([N+](=O)[O-])cc3)nc2-c2ccc(F)cc2)n(-c2ccccc2)n1 | inactive | 15.6 mm | 44.4% | 256 µg/mL (≈ 583 µM) | 128 µg/mL (≈ 291 µM) | 13.6 mm | 47.7% | –
21 | Cc1cc(-c2cn(-c3ccc([N+](=O)[O-])cc3)nc2-c2ccccc2)n(-c2ccccc2)n1 | inactive | 14.3 mm | 43.3% | 256 µg/mL (≈ 607 µM) | 256 µg/mL (≈ 607 µM) | 13.6 mm | 45.5% | –
22 | COc1ccc(-c2nn(-c3ccccc3)cc2/C=C(\Br)C(C)=O)cc1 | inactive | 16.3 mm | 45.5% | 128 µg/mL (≈ 322 µM) | 128 µg/mL (≈ 322 µM) | 15.6 mm | 44.4% | –
